Test: gradient 5% acetonitrile 3 min, to 50% in 2 min, to 85% in 15 min, held 3 min, 100 µL/min
Settings: column: Zorbax Extend-C18 2.1 x 50 mm; eluents: water / acetonitrile, 0.1% formic acid
Outline: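 Standards, all pure, were combined into mixtures of ~100 molecules and run at 100 μL/min on a Zorbax Extend-C18 column (2.1 × 50 mm, 1.8 μm) with water and acetonitrile, each containing 0.1% formic acid. A coupled quadrupole time-of-flight mass spectrometer operated in positive and negative ionization mode. Retention time values come from computationally picked adduct peaks, each inspected manually.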

SMILES	RP-LC retention time
Cc1ccc(-c2ncc(C(=O)Nc3ccc(Br)cc3)c(-c3ccncc3)n2)cc1	994 s
Cc1nnc(-c2ccncc2)o1	547 s
Cc1ccc(NC(=O)N2CCc3c(c(-c4nc(C5CC5)no4)nn3C)C2)c(C)c1	834 s
Cc1ccc(NC(=O)C2(C)Oc3cccnc3N(C(C)C)C2=O)c(C)c1 (stereo not given)	1040 s
COc1cccc(C2Cn3nnc(-c4nc(-c5cccc(F)c5)no4)c3CO2)c1 (stereo not given)	1130 s
CC(C)c1ccc(N2C=C(C#N)S(=O)(=O)c3ccccc32)cc1	1040 s
O=C(NCCn1cnc2ccccc2c1=O)C1CC(=O)N(c2n[nH]c3ccccc23)C1 (stereo not given)	632 s
Cn1nc(CN2CCOCC2)c2c1CCN(S(=O)(=O)c1cc(F)cc(F)c1)C2	642 s
Cc1cc(F)ccc1NC(=O)C1CC(=O)N(c2ccc3c(c2)CCN3C(=O)C2CC2)C1 (stereo not given)	758 s
O=C1CC(NC(=O)c2cc(-c3ccc(F)cc3)n[nH]2)CN1 (stereo not given)	604 s
CN(CC1CCOCC1)S(=O)(=O)Cc1ccccc1Cl	834 s
Cn1nc(C(=O)N2CCCC2)c2c1CCN(C(=O)CCC(=O)NCCN1CCCCC1)C2	574 s
COc1ccc(NC(=O)NC2CCN(c3ccc(C)c(C)c3)C2=O)cc1 (stereo not given)	821 s
CC1(C(=O)NC2CCCC2)Cn2cnc(C(=O)NCc3cccc(Cl)c3)c2C(=O)N1C1CC1 (stereo not given)	955 s
O=C(Cc1csc(COc2ccccc2)n1)N1CCN(c2ccccn2)CC1	617 s
O=C1CC2(CCN(S(=O)(=O)c3cc(F)ccc3F)CC2)Oc2ccccc21	929 s
CCc1ccc(S(=O)(=O)c2cnc(N3CCN(c4ccccc4OC)CC3)nc2N)cc1	1080 s
COc1ccc(-c2ncc3c(n2)CCN(S(=O)(=O)c2cccc(C(F)(F)F)c2)C3)cc1	1110 s
CC(C)(C)c1ccc(-c2csc(N)n2)cc1	666 s
CCN(CC)S(=O)(=O)c1cc(-c2nnc(-c3ccccc3OC)o2)ccc1OC	903 s
Cn1nc(-c2nc(C3CC3)no2)c2c1CCN(C(=O)c1cc(F)ccc1F)C2	860 s
O=C(c1ccc2ccccc2n1)N1C[C@@H](CO)[C@H](c2ccccn2)C1	590 s
CCCn1cc(C(=O)N2CCCC2)c2nn(-c3ccccc3)c(=O)c-2c1	664 s

SMILES	RP-LC retention time
CC(CNC(=O)CC1CCN(S(=O)(=O)c2ccccc2)CC1)c1ccccc1 (stereo not given)	866 s
CCOC(=O)c1ccc(NC(=O)CSc2cc(N3CCC(C(=O)NC4CC4)CC3)ncn2)cc1	748 s
O=C(CSc1nc(N2CCCCC2)nc2ccccc12)Nc1ccc(Br)cc1	810 s
COC(=O)c1cc(OCC(=O)Nc2ccc3c(c2)OCO3)c2cc(F)ccc2n1	778 s
Cc1cc(-c2nnc(C3CCC3)o2)c(C)n1CC(=O)Nc1ccc(F)c(F)c1	915 s
CC(=O)c1c(C)oc2ccc(NS(=O)(=O)c3cccc([N+](=O)[O-])c3)cc12	822 s
COCCCNC(=O)C1CCCN(C(=O)c2[nH]c(C)cc2C)C1 (stereo not given)	652 s
COc1ccc(-c2nnc(-c3ccc(Cl)c(S(=O)(=O)N4CCCC4)c3)o2)cc1	1060 s
Cc1cc(NC(=O)C(C)n2nc(-c3ccc(F)cc3)ccc2=O)on1 (stereo not given)	735 s
Cc1nc2cc(N3CC(C(=O)Nc4ccccc4)CC3=O)ccc2o1 (stereo not given)	703 s
Cc1cccc2nnc(N3CCN(C(=O)c4ccc(F)cc4)CC3)n12	648 s
Cc1nc(-c2cc(S(=O)(=O)Nc3ccc(Br)cc3)c(C)s2)cs1	1070 s
Cc1ccccc1Cn1cc(-c2ccncc2)cc1C(=O)N1CCOCC1	621 s
O=C(c1ccc([N+](=O)[O-])o1)N1CC2CC(C1)c1cccc(=O)n1C2 (stereo not given)	585 s
O=C1CCC(CCNS(=O)(=O)c2cc(Cl)ccc2Cl)CCN1CC1CC1 (stereo not given)	897 s
Cc1c(C(=O)N2CCCC(C)C2)cnn1-c1ccc(-c2nc(C(C)C)no2)cn1 (stereo not given)	1120 s
O=C(CSc1ccc(N2CCCC(C(=O)NC3CC3)C2)nn1)Nc1ccc(F)c(Cl)c1 (stereo not given)	660 s
Cc1nc(-c2noc(-c3ccccc3)n2)cn1CC(=O)NCc1ccc2c(c1)OCO2	800 s
CCOC(=O)COc1cccc2c1CCN(Cc1ccc(Cl)cc1)C2=O	934 s
COc1cc(NC(=O)Nc2nccn(-c3ccccc3)c2=O)cc(OC)c1	886 s
O=C(Cn1nc2ncccn2c1=O)NCc1ccco1	539 s
COC(=O)CNC(=O)N(C)Cc1nc2cc(C(=O)N3CCCC3)ccc2n1C	566 s
Cc1ccc(CNC(=O)Cn2ccnc2-c2ccnc(N3CCCC3)c2)cc1	602 s

SMILES	RP-LC retention time
O=C(NC1(N2CCOCC2)CC1)c1ccc(Cl)cc1	667 s
Cc1cc(=O)n(CC(=O)Nc2ccc(F)c(F)c2)c(N2CCCC2)n1	671 s
Cc1ccc(Nc2c(-c3ccccc3O)nc3ncccn23)c(C)c1	744 s
COc1ccc(C)cc1NC(=O)N1CCC(OC2CCN(S(C)(=O)=O)CC2)CC1	810 s
O=C(c1cccnc1)N1CCC2(CC1)N=C(c1ccc(Cl)cc1)NO2	682 s
COc1cccc(NC2=NS(=O)(=O)c3ccccc32)c1	732 s
CN1CCN(C(=O)Nc2ccc([N+](=O)[O-])cc2)CC1	634 s
CCn1cc(C(=O)NCc2ccc3c(c2)OCO3)c2cccnc21	755 s
CCN1c2cc(C(=O)NCc3ccc(SC)cc3)ccc2C(=O)N2CCCCC21 (stereo not given)	856 s
O=C(C1CCN(c2ncccc2-c2nc(-c3cccc(F)c3)no2)CC1)N1CCC2(CC1)OCCO2	1010 s
COc1ccccc1NC(=O)C1CCN(S(=O)(=O)c2cc(C(=O)N3CCCC3)n(C)c2)CC1	758 s
Cc1cccn2cc(-c3cccc(S(=O)(=O)N4CCOCC4)c3)nc12	604 s
CCOC(=O)c1ccc(NC(=O)C2(c3cccs3)CCOCC2)cc1	956 s
CCOC(=O)c1ccc(N(C)c2csc(-c3ccccc3)n2)cc1	1270 s
CSc1cccc(NC(=O)NC2CCN(c3ccc(C)c(C)c3)C2=O)c1 (stereo not given)	929 s
CCc1ccccc1NC(=O)CSc1nc2nc(C)cc(C)n2n1	732 s
COC(=O)CCNC(=O)C1c2ccccc2C(=O)N(CC(C)C)C12CCCCC2 (stereo not given)	842 s
Cc1ccc(NC(=O)C2CCCN(S(=O)(=O)c3cn(C(C)C)cn3)C2)c(Br)c1 (stereo not given)	850 s
O=C(NCC1CCCO1)c1ccccc1OCc1nc(-c2ccccc2)no1 (stereo not given)	898 s
Cc1nc(-c2ccc(OC3CCN(C(=O)NC(C)C)C3)cc2)no1 (stereo not given)	730 s
Cc1ccsc1C(=O)Nc1cccn2c(C3CCC3)nnc12	805 s
COc1cc(NC(=O)c2csc(-c3ccc(C)n3C)n2)cc(OC)c1	1130 s
CCn1cc(CCN2CCN(S(=O)(=O)c3cccs3)CC2)c2cccnc21	962 s

SMILES	RP-LC retention time
CC(CCNC(=O)CN1C(=O)CCn2nc(-c3cn(C)c4ccccc34)cc21)N1CCCC1 (stereo not given)	616 s
CCc1c(C(=O)NNC(=O)[C@@H](O)c2cc(F)cc(F)c2)ccc(O)c1C	807 s
O=c1ccc(-c2ccc(F)cc2)nn1CCc1nc(-c2cccc(Br)c2)no1	1100 s
O=C(Cn1c(=O)nc(-c2ccccc2)c2ccccc21)N1CCN(c2ccccn2)CC1	609 s
CCC(Oc1ccc(=O)n(-c2ccc(F)cc2)n1)C(=O)NCCC(C)C (stereo not given)	804 s
COCCN1C(=O)[C@H]2CN(Cc3cccc(C#N)c3)C[C@H]2C1=O	607 s
CCOCCCNCc1ccc(-c2cc(Cl)ccc2Cl)o1	753 s
COc1ccc(C2C(C(=O)NCCN(C)C)c3ccccc3C(=O)N2C)cc1OC (stereo not given)	700 s
Cc1cccc(Nc2nc(-c3ccncc3)cs2)c1	734 s
O=c1c2nnn(Cc3ccc(Cl)cc3)c2ncn1Cc1nc(-c2ccc3c(c2)OCO3)no1	982 s
O=C(c1ccoc1)N1CCc2[nH]cnc2C1c1ccccc1 (stereo not given)	585 s
CCOc1ccccc1NC(=O)NCCc1cn(C)c2ncccc12	733 s
Cc1nc(NS(=O)(=O)c2ccccc2)sc1C(=O)NCc1c(F)cccc1F	718 s
Cc1ccc(S(=O)(=O)N2CCCC(CCC(=O)NC3CCS(=O)(=O)C3)C2)cc1 (stereo not given)	765 s
CS(=O)(=O)c1nc2ccc(NS(=O)(=O)c3cc(F)cc(F)c3)cc2s1	858 s
O=C(CN1CC=C(c2cnn(-c3ccccc3)c2)CC1)N1CCN(Cc2ccc3c(c2)OCO3)CC1	591 s
COc1nccnc1NC1CCN(C(=O)Cc2ccsc2)CC1	921 s
COc1ccc(Cl)cc1NC(=O)NCCC1CCN(S(=O)(=O)c2ccc(F)cc2)CC1	1030 s
Cc1cc2nn(CC(=O)N3CCCC3)c(=O)n2c(-c2ccc(C(F)(F)F)cc2)n1	774 s
O=C(CCc1c(-c2ccc(F)cc2)nc2ccccn12)Nc1cccc(Cl)c1	730 s
CC(C)Cn1c(=O)c2ccccc2n(Cc2nc(-c3ccccc3)no2)c1=O	1040 s

Source: the METLIN SMRT retention time set (Domingo-Almenara et al. 2019)
